Test results as given in patent US9193719B2, “1,2,4-triazol-5-ones and analogs exhibiting anti-cancer and anti-proliferative activities” (Deciphera Pharmaceuticals, LLC, priority 2013, dated 2015).

What was measured:
[1] = molecular target: T1, unphosphorylated c-FMS kinase (uFMS, Seq. ID no. 1) (Homo sapiens, UniProt P07333); experiment: uFMS kinase enzymatic assay (pyruvate kinase/lactate dehydrogenase coupled); type: biochemical; conditions: ATP 500 μM, rate 3 to 4 h
T1 construct: purchased Millipore
T1 sequence (P07333 538-972): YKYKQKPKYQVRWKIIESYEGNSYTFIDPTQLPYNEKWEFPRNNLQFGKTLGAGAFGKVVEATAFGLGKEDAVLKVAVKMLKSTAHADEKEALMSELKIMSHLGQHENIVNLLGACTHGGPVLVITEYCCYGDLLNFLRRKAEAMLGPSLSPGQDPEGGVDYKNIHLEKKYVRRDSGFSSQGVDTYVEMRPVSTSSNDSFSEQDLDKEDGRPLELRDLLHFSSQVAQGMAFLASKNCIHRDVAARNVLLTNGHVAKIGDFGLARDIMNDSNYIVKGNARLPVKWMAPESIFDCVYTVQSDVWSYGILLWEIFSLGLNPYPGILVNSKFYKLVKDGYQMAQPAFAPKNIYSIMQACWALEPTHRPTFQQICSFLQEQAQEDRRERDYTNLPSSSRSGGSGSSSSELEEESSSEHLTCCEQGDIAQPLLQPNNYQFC
How it was run: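 Coupled PK/LDH assay following NADH oxidation at A340 with 10 nM unphosphorylated FMS, 1 mg/mL polyE4Y, 500 μM ATP in 90 mM Tris pH 7.5, 0.2% octyl-glucoside, 1% DMSO. Read continuously 4 h at 30 °C; rate from 3–4 h window versus no-compound control; IC50 from percent-inhibition series.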

[2] = molecular target: T2, unphosphorylated PDGFRβ kinase (uPDGFRβ, Seq. ID No. 3) (Homo sapiens, UniProt P09619); experiment: uPDGFRβ kinase enzymatic assay (pyruvate kinase/lactate dehydrogenase coupled); type: biochemical; conditions: ATP 500 μM, rate 1.5 to 2.5 h
T2 construct: purchased DeCode
How it was run: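 Unphosphorylated PDGFRβ (15.7 nM) with 500 μM ATP and poly E4Y (2.5 mg/mL) in Tris pH 7.5, 0.2% octyl-glucoside, 1% DMSO; ADP coupled via PK/LDH to NADH oxidation at A340, read continuously 4 h at 30 °C. Rates from 1.5–2.5 h window versus no-compound control gave IC50.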

[3] = tested on: MDA-MB-231-luc-D3H2LN human breast carcinoma xenograft; experiment: MDA-MB-231 xenograft study; type: in vivo, mouse; conditions: orally dosed at 15 mpk twice daily
Protocol: MDA-MB-231 Xenograft Study
To evaluate the in vivo anti-cancer activity compounds of Formula I, a MDA-MB-231-luc-D3H2LN human breast carcinoma xenograft was employed. Briefly, MDA-MB-231-luc-D3H2LN cells were obtained from Xenogen and expanded in Minimal Essential Media (MEM) with EBSS which was modified with 1% L-glutamine and supplemented with 10% FBS, 1% PSG, 1% non-essential amino acids, and 1% sodium pyruvate. The growth environment was maintained in an incubator with a 5% CO2 atmosphere at 37° C. Cells were harvested and re-suspended using 50% serum-free media and 50% Matrigel® to generate a stock concentration of 5×10^6 cells/mL.
Six to 7 week old female C.B-17/IcrHsd-PrkdcscidLystbg mice were injected with 200 μL of cell suspension subcutaneously, just below the right axilla. All procedures carried out in this experiment were conducted in compliance with all the laws, regulations and guidelines of the National Institutes of Health (NIH). Treatment began when the mean tumor burden is approximately 150 mg. All mice were dosed with test compound by oral gavage. Body weights and tumor measurements were recorded three times weekly. […] Images were analyzed using Living Image (Xenogen, Alameda, Calif.) software. […]

T2 sequence (P09619 557-1106): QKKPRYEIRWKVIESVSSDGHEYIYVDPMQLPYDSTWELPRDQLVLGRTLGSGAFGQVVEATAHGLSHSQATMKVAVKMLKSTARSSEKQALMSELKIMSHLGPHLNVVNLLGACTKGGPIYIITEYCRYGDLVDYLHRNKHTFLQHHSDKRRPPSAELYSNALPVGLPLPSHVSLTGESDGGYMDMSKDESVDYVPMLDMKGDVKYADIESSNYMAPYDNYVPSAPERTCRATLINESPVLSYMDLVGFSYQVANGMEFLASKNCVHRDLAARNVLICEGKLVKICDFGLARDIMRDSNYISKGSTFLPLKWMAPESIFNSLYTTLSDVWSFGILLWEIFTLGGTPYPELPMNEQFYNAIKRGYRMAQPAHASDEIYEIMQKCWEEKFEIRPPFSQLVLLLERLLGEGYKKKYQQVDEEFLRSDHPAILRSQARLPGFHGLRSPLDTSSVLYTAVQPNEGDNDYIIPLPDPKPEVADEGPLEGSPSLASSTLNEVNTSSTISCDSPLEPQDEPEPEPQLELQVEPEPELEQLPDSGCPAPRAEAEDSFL

IC50 [1] [nM]	IC50 [2] [nM]	Structure (SMILES)	tumor growth inhibition [3] [%]
≤ 10	> 1000	Cc1nc(-n2nc(C(C)(C)C)[nH]c2=O)ccc1Oc1ccnc(-c2cnn(C)c2)c1 [Example 7, 3-(tert-butyl)-1-(6-methyl-5-((2-(1-methyl-1H-pyrazol-4-yl)pyridin-4-yl)oxy)pyridin-2-yl)-1H-1,2,4-triazol-5(4H)-one]	39
≤ 10	100 to 1000	Cc1nc(-n2nc(C3(C(F)(F)F)CCC3)[nH]c2=O)ccc1Oc1ccnc(-c2cnn(C)c2)c1 [Example 43, 1-(6-methyl-5-((2-(1-methyl-1H-pyrazol-4-yl)pyridin-4-yl)oxy)pyridin-2-yl)-3-(1-(trifluoromethyl)cyclobutyl)-1H-1,2,4-triazol-5(4H)-one]	–
10 to 100	> 1000	COCC(C)(C)c1nn(-c2ccc(Oc3ccnc(-c4cnn(C)c4)c3)c(C)n2)c(=O)[nH]1 [Example 46, 3-(1-methoxy-2-methylpropan-2-yl)-1-(6-methyl-5-((2-(1-methyl-1H-pyrazol-4-yl)pyridin-4-yl)oxy)pyridin-2-yl)-1H-1,2,4-triazol-5(4H)-one]	–
10 to 100	> 1000	Cc1nc(-n2nc(C(C)(C)C)[nH]c2=O)ccc1Oc1cc(-c2cnn(C)c2)ncn1 [Example 47, 3-(tert-butyl)-1-(6-methyl-5-((6-(1-methyl-1H-pyrazol-4-yl)pyrimidin-4-yl)oxy)pyridin-2-yl)-1H-1,2,4-triazol-5(4H)-one]	–
10 to 100	> 1000	Cc1nc(-n2cc(C(C)(C)C)[nH]c2=O)ccc1Oc1ccnc(-c2cnn(C)c2)c1 [Example 48, 4-(tert-butyl)-1-(6-methyl-5-((2-(1-methyl-1H-pyrazol-4-yl)pyridin-4-yl)oxy)pyridin-2-yl)-1H-imidazol-2(3H)-one]	–
10 to 100	> 1000	Cc1nc(-n2nc(C(C)(C)C)oc2=O)ccc1Oc1ccnc(-c2cnn(C)c2)c1 [Example 49, 5-(tert-butyl)-3-(6-methyl-5-((2-(1-methyl-1H-pyrazol-4-yl)pyridin-4-yl)oxy)pyridin-2-yl)-1,3,4-oxadiazol-2(3H)-one]	–
